In patent US9757375B2, “Compounds that inhibit human DNA ligases and methods of treating cancer” (University of Maryland, Baltimore, priority 2007, dated 2017):

Assays:
HeLa cell extract = experiment: Cell extract assay with 5′-flap substrate (DNA replication and long patch base excision repair); format: biochemical, human; settings: for Cell Extract 100 (μM): BER inhibited: kind of BER not given; for final ligation step of the flap substrate repair reaction / flap removal by FEN-1: HeLa extract, 100 μmol/L (also 25 μM in the source), FIG. 4A
Protocol: Extracts were prepared from human cervical cancer HeLa cells as described previously (27, 31). For base excision repair (BER) assays, the extraction buffer contained 100 mmol/L of KCl, whereas for nonhomologous end-joining (NHEJ) assays, extraction buffer contained 400 mmol/L of KCl. Where indicated, DNA ligases were immunodepleted from the extracts as described (32) using protein A or G Sepharose beads (GE Healthcare) and anti-Lig1, anti-LigIII (GeneTex), or anti-LigIV (ABCAM) antibodies. Depletion was confirmed by immunoblotting.
A labeled 5′-flap substrate (0.1 pmol; (31)) was incubated with 20 μg of extract in the absence or presence of ligase inhibitors (100 μmol/L) at 25° C. for 5 min in ligation buffer (final volume, 50 μL). For short patch BER, a linear duplex containing a single uracil residue was preincised by treatment with uracil DNA glycosylase and APE1 (both from NEB) to generate a strand break with 3′ hydroxyl and 5′ deoxyribose phosphate termini. Reactions (50 μL) containing 0.3 pmol of the incised DNA substrate, 10 μCi of [α^32P]dTTP, and 20 μg of extract either in the absence or presence of ligase inhibitors (100 μmol/L) were incubated at 25° C. for 2 min in ligation buffer. After separation by denaturing polyacrylamide gel electrophoresis, labeled oligonucleotides were detected in the dried gel by phosphorImager analysis (Molecular Dynamics).
Next we used published cell extract assays (16,27,28) that measure different DNA replication and repair transactions to confirm the specificity of the DNA ligase inhibitors. FIG. 4A, the flap substrate (0.1 pmol) was incubated with cell extract (20 μg) in the absence (lane 2, Mock) or presence of 100 μmol/L, of L189 (lane 3), L67 (lane 4), or L82 (lane 5). hLigI (lane 6, I-dp) and hLigIIIa (lane 7, III-dp) were immunodepleted from the cell extracts prior to incubation with the DNA substrate. Lane 1, DNA substrate alone (Sub). The positions of the DNA substrate (24-mer), cleaved product (18-mer), and fully repaired product (43-mer). The flap substrate shown in FIG. 4A corresponds to an intermediate generated on the lagging strand during DNA replication and in the long patch subpathway of base excision repair. Previously it has been shown that DNA ligase I completes these two DNA transactions after removal of the flap by FEN-1 (16,28). A cell extract from the human cervical cancer cell line HeLa was incubated with the indicated labeled flap substrate that mimics a common intermediate in DNA replication and long patch base excision repair in the absence or presence of Compounds 67, 82, 184 and 189 (25 μM). After separation by denaturing gel electrophoresis, labeled fragments corresponding to the DNA substrate, cleaved product and fully repaired product were detected by phosphorimaging (28).

T4 DNA ligase = target: T1, T4 DNA ligase (Enterobacteria phage T4, UniProt P00970); experiment: Radioactive gel-based DNA ligation assay; format: biochemical, bacteriophage T4; settings: FIG. 2B
T1 construct: purchased NEB
T1 sequence (P00970 1-487): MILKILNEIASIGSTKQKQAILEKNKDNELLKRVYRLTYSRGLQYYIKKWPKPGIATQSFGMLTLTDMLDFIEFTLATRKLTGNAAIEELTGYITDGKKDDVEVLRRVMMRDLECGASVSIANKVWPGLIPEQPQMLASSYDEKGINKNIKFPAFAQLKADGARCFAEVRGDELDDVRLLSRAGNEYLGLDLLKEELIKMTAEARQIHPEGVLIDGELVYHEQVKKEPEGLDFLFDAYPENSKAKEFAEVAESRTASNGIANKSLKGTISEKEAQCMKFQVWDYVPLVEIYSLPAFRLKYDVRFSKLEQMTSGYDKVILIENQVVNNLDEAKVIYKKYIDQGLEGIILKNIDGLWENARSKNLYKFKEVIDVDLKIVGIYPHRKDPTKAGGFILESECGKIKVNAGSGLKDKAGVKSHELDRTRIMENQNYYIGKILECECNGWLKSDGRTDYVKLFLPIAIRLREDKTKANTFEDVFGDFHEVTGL
Protocol: A radioactive gel-based DNA ligation assay was performed as previously described (22). A 25-mer (5′-CGCCAGGGTTTTCCCAGTCACGACC-3′), and a 5′-[^32P] end-labeled 18-mer (5′-GTA AAA CGA CGG CCA GTG-3′) were annealed to a complementary 44-mer oligonucleotide, generating a linear duplex with a central nick. DNA joining reactions (30 μL) containing 0.5 pmol of labeled DNA substrate, and hLigI (0.02 pmol), hLigIIIβ (0.02 pmol), hLigIV/XRCC4 (0.1 pmol), or T4 DNA ligase (0.02 pmol) in ligation buffer were incubated in the absence or presence of ligase inhibitors at 25° C. for 30 min.
The effect of Compounds 67, 82 and 189 on DNA joining by human DNA ligases I, III and IV and T4 DNA ligase was determined. The IC50 values determined for Compounds 67, 82 and 189 using the fluorescence-based DNA joining assay (22) are shown for each of the DNA ligases. The effect of Compounds 67, 82 and 189 on DNA joining by human DNA ligases I, III and IV and T4 DNA ligase was determined using the radioactive gel-based assay (24). Representative gels of DNA ligation assays. The results of three independent experiments are shown graphically.

HCT116 and MCF10A cells = experiment: Screen for potentiation of DNA damaging agents, cell line not stated with the result; format: cell-based, human; settings: for radiosensitizer activity / synergy with PARP inhibitors / enhancement of the cytostatic effect of MMS: 50 μM; for radiosensitizer activity: 2 gray of ionizing radiation; for synergy with PARP inhibitors: 3 AB 2 mM; for cell survival: sensitivity to DNA damaging agent (IR, MMS): cell line not stated; for enhancement of the cytostatic effect of MMS: MMS 100 μM
Excerpt: The 192 human DNA ligase inhibitors were screened in parallel for effects on proliferation and the ability to potentiate the effects of several DNA damaging agents using two cell human lines, a colon cancer line HCT116 and a normal breast epithelial cell line MCF10A using a Biomek FX Laboratory Automation Workstation as described (23). The DNA damaging agents used, methyl methanesulfonate (MMS), camptothecin, cis-platinum, 3 aminobenzamide and ionizing radiation, are representatives of classes of agents used to treat cancer. Briefly, HCT116 and MCF10A cells were plated in 96 well plates such that the cultures were about 80% confluent after 5 days incubation. Compounds were added to the cultures at either 15 μM or 50 μM 1 day after plating. After incubation for 3 days, cell lysed in a solution containing 1.2% Igepal CA-630 and SYBR green that stains DNA (1:1000, Molecular Probes, Eugene, Oreg.). Subsequently, fluorescence was measured per well. The studies with DNA damaging agents were performed as follows. […] For ionizing radiation, cells were pre-incubated with the compounds at 50 μM for 1 hour prior to exposure to 2 gray of ionizing radiation. Cultures were incubated for 3 days and then treated as above.

With O=c1[nH]ncc(N/N=C\c2ccc(O)c([N+](=O)[O-])c2)c1Cl [Compound 82] the “Cell Extract 100 (μM): BER inhibited” value (HeLa cell extract) was “BER”, the “final ligation step of the flap substrate repair reaction” value (from here on “final ligation step”) (HeLa cell extract) was “inhibited the final ligation step of the repair reaction” and the “flap removal by FEN-1” value (HeLa cell extract) was “had no effect on flap removal by FEN-1”. The “inhibition of DNA joining by T4 DNA ligase” value (“inhibition of DNA joining” below) (T4 DNA ligase) was “not significantly inhibited”.

In the case of O=C(O)CSc1cc(Cl)c2nonc2c1[N+](=O)[O-] [Compound 64], the radiosensitizer activity (HCT116 and MCF10A cells) is reported as “act as radiosensitizers”, the “synergy with PARP inhibitors” value (HCT116 and MCF10A cells) is reported as “act synergistically with PARP inhibitors” and the “cell survival: sensitivity to DNA damaging agent (IR, MMS)” value (shortened to “cell survival: sensitivity”) (HCT116 and MCF10A cells) is reported as “IR sensitive”.

Cc1c(Br)cc(NCC(=O)N/N=C\c2cc([N+](=O)[O-])ccc2O)cc1Br [Compound 67] was tested, and the “Cell Extract 100 (μM): BER inhibited” value (HeLa cell extract) was “BER”, the “final ligation step” value (HeLa cell extract) was “inhibited the final ligation step of the repair reaction” and the “flap removal by FEN-1” value (HeLa cell extract) was “had no effect on flap removal by FEN-1”. The “inhibition of DNA joining” value (T4 DNA ligase) was “not significantly inhibited”, the “synergy with PARP inhibitors” value (HCT116 and MCF10A cells) was “act synergistically with PARP inhibitors” and the “enhancement of the cytostatic effect of MMS” value (HCT116 and MCF10A cells) was “enhance the cytostatic effect of MMS”. For the same molecule, the “cell survival: sensitivity” value (HCT116 and MCF10A cells) was “IR, MMS sensitive”.

With O=C(Cn1cnc([N+](=O)[O-])n1)N/N=C/c1ccc(O)cc1O [Compound 151] the “Cell Extract 100 (μM): BER inhibited” value (HeLa cell extract) was “BER”, the radiosensitizer activity (HCT116 and MCF10A cells) was “act as radiosensitizers” and the “enhancement of the cytostatic effect of MMS” value (HCT116 and MCF10A cells) was “enhance the cytostatic effect of MMS”. The “cell survival: sensitivity” value (HCT116 and MCF10A cells) was “MMS sensitive”.

With Nc1nc(S)nc(O)c1/N=C/c1ccccc1 [Compound 189] the “Cell Extract 100 (μM): BER inhibited” value (HeLa cell extract) was “BER”, the “final ligation step” value (HeLa cell extract) was “inhibited the final ligation step of the repair reaction” and the “flap removal by FEN-1” value (HeLa cell extract) was “had no effect on flap removal by FEN-1”. The “inhibition of DNA joining” value (T4 DNA ligase) was “not significantly inhibited” and the “cell survival: sensitivity” value (HCT116 and MCF10A cells) was “IR sensitive”.
